{"source": "patent US20260258004A1", "about": "“CRYSTALLINE FORMS OF (6S)-5-[4'-FLUORO-2-(TRIFLUOROMETHYL)BIPHENYL-4-YL]-6-METHYL-3,6- DIHYDRO-2H-l,3,4-OXADIAZIN-2-ONE” (Bayer Aktiengesellschaft, priority 2022, published 2026)", "format_in_all_cases": "physicochemical", "key": {"[1]": {"experiment": "Thermodynamic stability of the polymorphic forms", "conditions": "between 0° C. and 80° C."}, "[2]": {"experiment": "Hygroscopicity classification applying the Pharmacopeia rules", "excerpt": "The shear cell was fully filled with a sample of powder of the compound of formula (I) thereby preventing condensing the powder. Both samples, sample 1 and sample 2, were classified as non-hydroscopic applying the Pharmacopeia rules."}, "[3]": {"experiment": "Schulze ring shear test (flow properties)", "conditions": "normal load 1.5 kPa, 24° C., humidity 30%, no storage time", "excerpt": "The device used is the Schulze ring shear tester RST-XS.s for which a general technical product information is available on http://www.dietmar-schulze.de. We were using the shear cell XS-SV3. A statement referring to the testing procedure from the technical product information for RST-XS.s reads as follows: • “Testing procedure: The powder sample is contained in an annular shear cell “(FIG. 19B). • “A vertical load ? N] is applied through a thin loading rod on the annular lid. To shear the sample, the shear cell rotates relative to the lid (direction ω), and the torque necessary for shearing is determined from forces and F1 and F2 acting in a tie rod and a push rod. Following a well-defined procedure, which is executed computer-controlled, the flow properties are measured. […]\nDuring the shear test, the bottom ring slowly rotated in the direction of the arrow with the low rotational speed ω of 2 rpm maximum. Rotation of the lid was prevented by the tension rods; the tensile forces F1 and F2 necessary to achieve this are measured by the load cells. From the normal and shear forces respectively stresses, the so-called yield locus was determined, which describes the flow behavior of a bulk solid. […]\nThe experimental data obtained were analyzed following the method described in Schulze, D. (2008). […] FIG. 21 provides the flow factor of both samples as calculated on basis of the ring shear experiment. […]"}, "[4]": {"experiment": "Determination of bulk density during shear tests", "conditions": "during shear test", "description": "Because of the normal stress of 1.5 kPa applied on the top of the lid during the shear test the lid lowers into the shear cell and compresses the powder.\nDuring the shear tests this lowering of the lid is measured and recorded. Since the volume of the bottom ring is known and weight of the sample measured before the beginning of the shear test the bulk density of the sample during the shear test is calculated\n[formula] • with: • ρb,shear: Bulk density under shear • mges: total mass of shear cell including powder sample (w/o lid) • mcell: net mass of shear cell (w/o powder sample, w/o lid) • hc: height of the bottom ring • hl: lowering of lid • Acell: bottom area of shear cell\nThe calculation of the bulk density is done automatically with the evaluation software provided together with the shear tester."}}}
{"smiles": "C[C@@H]1OC(=O)NN=C1c1ccc(-c2ccc(F)cc2)c(C(F)(F)F)c1", "note": "[polymorph C, (6S)-5-[4′-Fluoro-2-(trifluoromethyl)biphenyl-4-yl]-6-methyl-3,6-dihydro-2H-1,3,4-oxadiazin-2-one]", "values": [{"measurement": "thermodynamic stability", "setting": "[1]", "value": "thermodynamically stable form"}, {"measurement": "hygroscopicity classification", "setting": "[2]", "value": "non-hydroscopic"}, {"measurement": "flow behaviour (flow factor ffc)", "setting": "[3]", "value": "flowing a bit better than polymorph A"}, {"measurement": "bulk density compared with sample 1 (FIG. 22)", "setting": "[4]", "value": "significantly higher"}, {"measurement": "bulk density", "setting": "[4]; normal stress 1.5 kPa", "value": "about 550 kg/m^3"}]}
